Tests used:
[1] = Peroxide value (PV), spectrophotometric ferric thiocyanate method, after storage in open glass; format: physicochemical
From the text: The present invention also contemplates stabilization of the CLA acylglycerides by preventing oxidation of the compounds. The present invention is not limited to any one mechanism. Indeed, an understanding of the mechanism of the invention is not necessary to produce the composition or perform the methods of the present invention. […] After storage in open glass, the PV of CLA was 32; in comparison, the value for linoleic acid was 370.

[2] = system: rat mammary tumorigenesis; conditions: administration of CLA; cited from earlier work
[3] = diet containing 0.5 percent CLA, cited from earlier work
[4] = system: CD-4 and CD-8 lymphocyte subpopulations; conditions: oral or parenteral, free acid or salt form; cited from earlier work
[5] = CLA incorporated into animal feed; cited from earlier work
[6] = system: human melanoma, colorectal and breast cancer cells; conditions: in vitro; cited from earlier work

With CCCCC/C=C\C/C=C\CCCCCCCC(=O)O [linoleic acid, reference compound] the “peroxide value (PV)” value [1] was 370.

For conjugated linoleic acid [CLA], the “peroxide value (PV)” value [1] is given as 32, the “effect on rat mammary tumorigenesis” value [2] is given as “inhibits rat mammary tumorigenesis” and the body weight [3] is given as “no increase”. The fat content ([3]; pigs, mice, humans) was “significant drop”, the protein mass ([3]; pigs, mice, humans) was “concomitant increase” and the “CD-4 and CD-8 lymphocyte subpopulations” value [4] was “elevation”. The “efficiency of feed conversion” value [5] was “increased the efficiency of feed conversion” and the cytotoxicity [6] was “strong cytotoxic agent”.
